Data: patent EP0233206B1, “SUGAR-[…] THEIR PHARMACEUTICAL USE” (priority 1985, dated 1987)

How the values were obtained:
[1] = test system: mäusepathogenen Influenza-Viren; assay type: in vivo, NMRI-Mäusen; details: 20 NMRI mice, 500 µg each injected in 1 % Squalan-in-Wasser-Lösung, all saline controls died
[2] = test system: immunkompetenten Zellen; experiment: Activity of immunocompetent cells of the treated animals; assay type: in vivo, NMRI-Mäusen; details: cells of the animals treated with 500 µg substance in 1 % Squalan-in-Wasser-Lösung

COC(=O)CC[C@@H](NC(=O)CNC(=O)CO[C@@H]1[C@H]2OC(C)(C)O[C@H]2O[C@@H]1[C@H]1COC(C)(C)O1)C(=O)OC [Beispiel 1, N-[ (1,2:5,6-Di-0-isopropyliden-α-D-glucofuranos-30-yl)-acetyl]-glycyl-D-glutaminsäure-dimethylester]
überlebten (Tiere) [1]: 80%
Aktivität der immunkompetenten Zellen [2]: erhöhte Aktivität
